Data published in US20230241167A1, “Use of Caveolin-1 Scaffolding Domain Peptides for Treating Disease and Disorders” (MUSC Foundation for Research Development, priority 2020, published 2023).
Square brackets hold non-standard residues; d marks the D form. Ends that are not written are not given here. Peptide text beside a SMILES is read from it.

Legend:
Ang II-infused mice = assay: Angiotensin II-induced congestive heart failure (CHF) model; format: in vivo; settings: for suppression of the effects of AngII on Heart Weight/Body Weight (HW/BW) ratio: young mice (3 months) infused with Ang II two weeks
Procedure: FIG. 1 provides an overview of an experiment using Full-Length CSD, 82-89, 88-95, and 94-101 (SEQ ID NO:1, SEQ ID NO:2, SEQ ID NO:3, and SEQ ID NO:4 respectively).
Young mice (3 months old) infused with Ang II or vehicle for two weeks received daily i.p. injections of CSD, the indicated subdomains or scrambled CSD (0.8 μmol/kg). Mice were evaluated by Echocardiography for changes in posterior wall thickness (pWTh), fractional shortening (FS), cardiac output (CO), ejection fraction (EF), and isovolumic relaxation time (IVRT). Significant changes are shown as ***p<0.001 for Sham+Veh vs AngII+Veh. Significant suppression of AngII-induced changes is shown as ^p<0.05, ^^p<0.01, and ^^^p<0.001 for AngII+Veh vs AngII+CSD or AngII+CSD subdomains. The number of mice used in each treatment are shown in the HW/BW data.
Young mice (3 months old) infused with Ang II or vehicle for two weeks received daily i.p. injections of the indicated subdomains of CSD. The results of a typical experiment for Col I and HSP47 (FIG. 4) and for microvascular leakage (FIG. 5) are shown in Western blots (2 to 3 mice per group). The data are quantified below (n=4). Significant changes are shown as *p<0.05 and **p<0.01 for Sham+Veh vs Ang II+Veh. Significant suppression of Ang II-induced changes by subdomains are shown as ^p<0.05, […], and ^^^p<0.001 for Ang II+Veh vs Ang II+CSD subdomains.
Young mice (3 months old) infused with Ang II or vehicle for two weeks received daily i.p. injections of W82-89. IgG heavy chain (IgGH) leakage and Col I accumulation are shown in Western blots. The actin loading control is present twice because IgGH was analyzed in the supernatant fraction of heart homogenate while Col I is found in the pellet fraction. In the quantitation (n=4), significant changes are shown as **p<0.01 and ***p<0.001 for Sham+Veh vs Ang II+Veh and ^^p<0.01 and ^^^p<0.001 for reversal of AngII-induced changes by W82-89.

[1] = Plasma level of fluoresceinated W82-89 after i.p. or i.n. delivery; parameters: species or system mice; settings: mouse, in vivo
Procedure: administration of the water soluble CSD peptides is a promising route of delivery. Two mice received a single i.p. injection of 0.8 μmol/kg fluoresceinated W82-89 in 100 μl PBS. Two mice received fluoresceinated W82-89 i.n. (4 μmol/kg in 30 μl PBS (15 μl per nostril)). Using calibrated capillary tubes, 50 μl of blood was collected from the maxillary vein from one mouse from each pair at 3 min, 30 min, 2 h, and 6 h; and from the other mouse from each pair at 10 min, 1 h, 4 h, and 8 h. Blood was immediately diluted with 200 μl PBS/10 mM EDTA, and centrifuged to harvest plasma. The level of W82-89 in the plasma was determined using a fluorescent plate reader.

[2] = in vivo, ip
Procedure: Following a single i.p. dose of the indicated fluorescent peptides, blood was collected from the maxillary vein at intervals and the levels of the peptides in plasma derived from the blood was determined using a fluorescent plate reader.

[3] = test system: aged C57/Bl6 mice (18 months); assay: Aging-associated pathological changes in heart and kidney of aged mice; format: in vivo
Procedure: The function of various organs in the elderly goes downhill progressively. This is in part due to increases in fibrosis and microvascular leakage. The experiments presented in this Example have examined these progressive processes in mice.
Young C57/Bl6 mice (3 months), middle-aged C57/Bl6 mice (9 months), and aged C57/Bl6 mice (18 months) were injected daily i.p. for six weeks with saline vehicle or CSD. IgG heavy chain leakage and Col I accumulation were evaluated by Western blots of heart (FIG. 10) and kidney tissue (FIG. 11). Actin was the loading control. Two to three mice per category are shown. In the quantifications (n=4), significant changes are shown as ***p<0.001 between young and aged mice and ^^^p<0.001 for decreases in aged mice treated with CSD. In FIG. 12, representative examples of picrosirius red staining of heart and kidney tissue sections from the indicated mice are shown. The data were quantified (n=3) as in terms of Collagen Volume Fraction. Significant changes are shown as ***p<0.001 and **p<0.01 between young and aged mice and ^p<0.05 for decreases in aged mice treated with CSD.
The same extracts used in FIG. 10 and FIG. 11 were analyzed by Western Blot for tyrosine kinase activation using antibodies specific for phosphorylated tyrosine residues in PDGFR (α-Y849/β-Y857), c-Src Y426, and Pyk2 Y402. Actin was the loading control. In the quantifications, significant changes are shown as ***p<0.001 and **p<0.01 between young and aged mice and ^^^p<0.001 and ^^p<0.01 for decreases in Aged mice treated with CSD.
Echocardiographic analyses were performed on the same mice used in FIG. 10 and FIG. 11 prior to their sacrifice. M-mode echo measurements in parasternal short-axis (PSAX) view were used to quantify changes in EF and FS. Tissue Doppler measurements in PSAX were used to measure IVRT. Values are shown as Mean±SEM. Statistically significant changes are shown as ***p<0.001 between young and aged mice and ^p<0.05 for improved functions in aged mice due to CSD treatment (FIG. 14).
Left ventricle tissue sections from the same mice used in FIG. 10 were stained with hematoxylin-eosin and cardiomyocyte cross-sectional area was quantified by measuring at least 50 cardiomyocytes for each group (n=3) using SigmaScan Pro image analysis. Statistical significance is shown as ***p<0.001 between young and aged mice and ^p<0.05 for decreased hypertrophy in aged mice due to CSD treatment (FIG. 15).

[4] = test system: aged mice (18-month old), brain tissue; assay: Aging-associated pathological changes in the brain of aged mice; format: in vivo; settings: 18-month old mice; CSD injections for four weeks; Western blot
Procedure: FIG. 16 provides an overview of an experiment using CSD (SEQ ID NO: 1). It is similar to the experiment described in FIG. 9 except that the readouts were performed on brain tissue rather than heart and kidney tissue.
Mice were treated as described in FIG. 10, except that CSD injections were for four weeks. Brain tissue extracts were analyzed by Western blot for microvascular leakage and fibrosis (FIG. 17) and for tyrosine kinase activation (FIG. 18). In the quantifications (n=3), significant changes are shown as ***p<0.001 and **p<0.01 between young and aged mice and ^^^p<0.001 and ^^p<0.01 for decreases in aged mice due to CSD treatment.

bleomycin-treated mice = assay: Bleomycin-induced lung and skin fibrosis, treatments delivered by pump; format: in vivo
Procedure: Experiments were conducted to examine the effect of unmodified CSD subdomains on lung and skin fibrosis. […] Pumps containing bleomycin or saline vehicle were implanted subcutaneously into mice. After one week, the pumps had emptied and were replaced with pumps designed to empty over two weeks containing the indicated treatments (n=6 per group). After these two weeks, the mice were sacrificed.
Skin in the vicinity of the pump outlet was harvested for measurement of the thickness of the dermis and the intradermal fat. ^^^p<0.001 for Saline/Vehicle vs Bleo/Vehicle. ***p<0.001, **p<0.01, *p<0.05 for Bleo/Vehicle vs Bleo/Peptide Treatments.

[5] = test system: Bone marrow (BM) monocytes; assay: Migration of bone marrow monocytes from bleomycin-treated mice treated in vivo; settings: mice treated in vivo prior to harvesting the monocytes
Description: Recruitment of activated monocytes into damaged lung tissue contributes to the progression of fibrosis and is suppressed in vivo by CSD (FIG. 22). Bone marrow (BM) monocytes were isolated from control and bleomycin-treated mice.

[6] = test system: aged C57/Bl6 mice (18 months); assay: Aging-associated pathological changes in heart and kidney of aged mice; format: in vivo; settings: echocardiography
[7] = test system: fibrosis in lung, skin, and heart; settings: literature; cited from earlier work
[8] = 18-month old mice, daily i.p. six weeks, Western blot
[9] = aged mice, Western blot for phosphorylated tyrosine residues
[10] = skin in the vicinity of the pump outlet

## CC[C@H](C)[C@H](NC(=O)CNC(=O)[C@H](CC(=O)O)NC(=O)[C@@H](CCCCN)NC(=O)[C@@H](CCCCN)NC(C)=O)C(=O)N[C@@H](Cc1c[nH]c2ccccc12)C(=O)N[C@@H](CCCCN)C(=O)N[C@@H](C)C(=O)N[C@@H](CO)C(=O)N[C@@H](Cc1ccccc1)C(=O)N[C@H](CCCCN)C(=O)N[C@H](CCCCN)C(N)=O [W82-89] (Ac-[dK][dK]DGIWKASF[dK][dK]-NH2)
Ang II-infused mice; W82-89 experiment (FIG. 6, 7), daily i.p. injections
  suppression of AngII-induced fibrosis (Col I levels) in the heart: suppressed by W82-89 with high significance
Ang II-infused mice; Western blot, daily i.p. injections
  suppression of AngII-induced microvascular leakage in the heart (IgG heavy chain level in the tissue): suppressed by W82-89 with high significance
Ang II-infused mice; summary, FIG. 8
  overall effectiveness of domains in the CHF model (summary of FIGS. 1-7): more effective than 82-89 and at least as effective as 88-95
Ang II-infused mice; daily i.p. injections
  suppression of the effects of AngII on Heart Weight/Body Weight (HW/BW) ratio: suppressed by W82-89 with high significance
[1]
  Area Under the Curve for i.n. delivery relative to i.p. dose: > 1.5 fold
[2]
  uptake into plasma following i.p. administration: much greater than the uptake of CSD or WCSD

## caveolin-1 scaffolding domain peptide (DGIWKASFTTFTVTKYWFYR-NH2) [CSD, amino acids 82-101 of caveolin-1]
Ang II-infused mice; daily i.p. injections
  suppression of the effects of AngII on Heart Weight/Body Weight (HW/BW) ratio: suppress
Ang II-infused mice; young mice infused with Ang II two weeks, daily i.p. injections, echocardiography
  suppression of the effects of AngII on Ejection Fraction (EF), Fractional Shortening (FS), Isovolumic Relaxation Time (IVRT): suppress
[3]; [8]
  level of fibrosis (Col I accumulation) in the heart: reverses the levels of fibrosis and microvascular leakage almost to the level observed in 3-month old mice
  level of fibrosis (Col I accumulation) in the kidney: reverses the levels of fibrosis and microvascular leakage almost to the level observed in 3-month old mice
  level of microvascular leakage (IgG heavy chain) in the heart: reverses the levels of fibrosis and microvascular leakage almost to the level observed in 3-month old mice
  level of microvascular leakage (IgG heavy chain) in the kidney: reverses the levels of fibrosis and microvascular leakage almost to the level observed in 3-month old mice
[3]; aged mice, heart tissue sections
  picrosirius red staining (collagen volume fraction), heart: significantly reduced
[3]; aged mice, kidney tissue sections
  picrosirius red staining (collagen volume fraction), kidney: significantly reduced
[3]; [9]
  aging-associated activation of tyrosine kinases PDGFR, c-Src and Pyk2, heart: almost completely reversed
  aging-associated activation of tyrosine kinases PDGFR, c-Src and Pyk2, kidney: almost completely reversed
[3]; aged mice, echocardiography
  IVRT (prolonged ventricular relaxation time caused by aging): resolved by CSD treatment
[3]; aged mice, left ventricle sections
  cardiomyocyte hypertrophy (cross-sectional area): reversed
[4]
  level of activated tyrosine kinases in the brain: decreases these levels almost to the levels observed in healthy 3-month old mice
  level of fibrosis in the brain: decreases these levels almost to the levels observed in healthy 3-month old mice
  level of microvascular leakage in the brain: decreases these levels almost to the levels observed in healthy 3-month old mice
bleomycin-treated mice; [10]
  dermal fibrosis (thickness of the dermis): suppression
  loss of intradermal fat: suppression
bleomycin-treated mice; treatment by pump over two weeks after one week bleomycin, n=6
  bleomycin-induced lung fibrosis (Ashcroft score): suppression
[5]
  enhanced migration of BM monocytes from bleomycin-treated mice: suppression
[6]
  FS and SV (ventricular function): positive effect
[7]
  inhibition of fibrosis in vivo: inhibits fibrosis in vivo in lung, skin, and heart
